Data published in patent US20250163056A1, “NONMUSCLE MYOSIN II INHIBITORS” (The University of Florida Research Foundation, Inc., priority 2018, published 2025).
≈ marks a conversion by molar mass, not a printed value.

Assays:
METH seeking = assay: Context-induced reinstatement of METH seeking (animal model of relapse); format: in vivo; details: single intra-BLC administration
BLC spine density = BLC spine density associated with memory; details: in vivo
Source text: (§1) FIG. 3(A,B,C,D): Systemic NMII inhibition selectively targets the storage of (A) a METH-associated memory, (B) having no effect on an auditory fear memory. Similarly, spine density associated with a METH-associated memory (C), but not a fear memory (D), is reduced.
(§2) The potential for systemic NMII inhibition to selectively target METH-associated memories in the way that intra-AMY administration does was also investigated. […] IP administered Blebbistatin also disrupts reconsolidation of memories for cocaine, nicotine and mephedrone, a result with additional potential therapeutic relevance in treating relapse^75-76. In addition, the BLC spine density increase that accompanies a METH-associated memory is reversed by Blebbistatin (FIG. 3C), without altering the spine density increase associated with a fear memory (FIG. 3D)^65, 74.

[1] = tested on: polydrug-associated memories; assay: Polydrug-associated memory CPP (METH/NIC, METH/MOR); format: in vivo, mice; details: Test 1 and Test 2, drugs on alternating days
Protocol: FIG. 6(A,B,C,D,E): Nonmuscle myosin II inhibition disrupts polydrug-associated memories when the drugs are administered on alternating days (A) Schematic of the experimental design. […] METH/NIC: Veh n=10; METH/NIC: Blebb n=10; METH/MOR: Veh n=19; METH/MOR: Blebb n=19; * p<0.05, ** p<0.01, *** p<0.001. Error bars represent±s.e.m.
The vast majority of individuals with substance use disorder are polydrug users. For example, most METH users also smoke. We recently made an unexpected discovery with direct relevance to polydrug use^76. When animals are treated with both METH and a drug that is impervious to Blebb on its own (nicotine or morphine), either concurrently or on alternating days, the nicotine and morphine memories become susceptible to immediate disruption by Blebb, akin to the effect on METH alone memories (FIG. 6). Thus, memories for previously impervious drugs of abuse become susceptible to NMII inhibition when METH associations are also formed. Importantly, this occurs when associative training is performed with METH and the other drug of abuse being administered simultaneously or separately, on different days. We are currently expanding our analysis to other commonly abused drugs, including other opioids, such as heroin, alcohol, cocaine and synthetic cathinones.

[2] = Solubility (quoted in the Table 2 note); format: physicochemical
fear memory = assay: Auditory fear memory after systemic NMII inhibition; format: in vivo; details: IP administered
Source text: as §1, §2

[3] = Brain and plasma distribution after IP dosing; format: in vivo, mice; details: 10 mg/kg
Protocol: FIG. 4: Brain and plasma distribution of blebbistatin after IP dosing at 10 mg/kg in mice.
as §2

[4] = Photostability, percentage remaining undegraded under illumination or in the dark
Male Sprague-Dawley rats = assay: Cardiac safety assay 2: in vivo echocardiography with IV drug infusion; design: species or system rat
Source text: The first (results shown in Table 2) assesses the effects of our compounds on the contractility of cardiomyocytes. As the cardiac Ki increases, the contractility effects dramatically decrease. However, unlike in the adult heart, the hiPS cardiomyocytes used in this assay express NMII, which likely accounts for the residual contractility effects seen at the highest dose tested. For that reason, we moved to in vivo echocardiograms, which assess contractility in live animals (FIG. 7). […] Accordingly, the compounds of the invention and compounds used for practice of methods of the invention can produce less cardiac toxicity than does blebbistatin.
Male Sprague-Dawley rats are acclimated for approximately 1 week prior to use. Rats are lightly anesthetized using isoflurane and an intravenous catheter is placed for dosing purposes. Baseline 2-D echocardiograms are collected (standard SAX B-mode and M-mode at the level of the papillary muscle). Each rat receives a total of 3 IV treatments. Vehicle (10% DMSO, 10% Tween 80 and 80% water) is first administered, followed 10 minutes later by two subsequent infusions, separated by 10 minutes. Infusions of the positive control, Blebbistatin, are delivered at 0.5 mg/kg IV. […] Measurements including fractional shortening, ejection fraction, heart rate and cardiac output are calculated.

- solubility [2]: 9.3 µM (≈ 2.72 µg/mL)
- brain levels [3]: 90 µM
- Photostability 4 hours ([4]; percentage remaining undegraded after 4 hours illumination): 82.9%
- Photostability 24 hours ([4]; percentage remaining undegraded after 24 hours illumination): 9.3%
- Photostability Dark (24 h) ([4]; percentage remaining undegraded in the dark, 24 h): >99%
SMILES: Cc1ccc2c(c1)C(=O)[C@]1(O)CCN(c3ccccc3)C1=N2 [Blebbistatin, reference compound]
- context-induced reinstatement of METH seeking (METH seeking): prevents context-induced reinstatement of METH seeking
- BLC spine density increase accompanying a METH-associated memory (BLC spine density): reversed
- METH/MOR CPP [1]: did not demonstrate a significant METH/MOR CPP during either test
- METH/NIC CPP [1]: did not demonstrate a significant METH/NIC CPP during either test
- effect on a fear memory (fear memory): no similarly immediate effect on a fear memory
- contractility effects in in vivo echocardiograms (Male Sprague-Dawley rats): substantial contractility effects
